Source: US7989649B2, “Tumor imaging compounds” (Emory University, priority 2002, dated 2011)

How the values were obtained:
[1] = Rodent biodistribution study in normal Fischer rats; assay type: in vivo, rat; conditions: for Tissue distribution of radioactivity, Blood / Tissue distribution of radioactivity, Bone / Tissue distribution of radioactivity, Brain / Tissue distribution of radioactivity, Heart / Tissue distribution of radioactivity, Kidney / Tissue distribution of radioactivity, Liver / Tissue distribution of radioactivity, Lung / Tissue distribution of radioactivity, Muscle / Tissue distribution of radioactivity, Pancreas / Tissue distribution of radioactivity, Spleen / Tissue distribution of radioactivity, Testis: normal Fischer rats
Procedure: Rodent biodistribution studies. The same procedures were used to evaluate [^18F]5a and [^18F]5b separately in rodents. The tissue distribution of radioactivity was determined in 16 normal male Fischer 344 rats (200-250 g) after intravenous injection of ˜85 μCi of [^18F]5a or [^18F]5b in 0.3 mL of sterile water. The animals were allowed food and water ad libitum before the experiment. Following anesthesia induced with an intramuscular injection of 0.1 mL/100 g of a 1:1 ketamine ([…]):xylazine (20 mg/mL) solution, the radiolabeled amino acid was injected into the rats via tail vein catheters. Groups of four rats were killed at 5 minutes, 30 minutes, 60 minutes and 120 minutes after injection of the dose. The animals were dissected, and selected tissues were weighed and counted along with dose standards in a Packard Cobra II Auto-Gamma Counter. The raw counts were decay corrected, and the counts were normalized as the percent of total injected dose per gram of tissue (% ID/g). A comparison of the uptake of activity in the tissues at each time point was analyzed using a 1-way ANOVA (GraphPad Prism software package).

9 L gliosarcoma tumor = test: Biodistribution in Fischer rats with intracranial 9 L gliosarcoma tumor; assay type: in vivo; conditions: tumor-bearing Fischer rats; for Tissue distribution of radioactivity, Brain: normal brain contralateral to tumor
Procedure: Tumor induction and animal preparation. All animal experiments were carried out under humane conditions and were approved by the Institutional Animal Use and Care Committee (IUCAC) at Emory University. Rat 9 L gliosarcoma cells were implanted into the brains of male Fischer rats as described previously [Shoup, T M et al. (1999), J. Nucl. Med. 40:331-338]. Briefly, anesthetized rats placed in a stereotactic head holder were injected with a suspension of 4×10^4 rat 9 L gliosarcoma cells (1×10^7 per mL) in a location 3 mm right of midline and 1 mm anterior to the bregma at a depth of 5 mm deep to the outer table. The injection was performed over the course of 2 minutes, and the needle was withdrawn over the course of 1 minute to minimize the backflow of tumor cells. The burr hole and scalp incision were closed, and the animals were returned to their original colony after recovering from the procedure. Intracranial tumors developed that produced weight loss, apathy and hunched posture in the tumor-bearing rats, and the animals were used at 17-19 days after implantation. Of the 30 animals implanted with tumor cells, 25 developed tumors visible to the naked eye upon dissection and were used in the study.
The tissue distribution of radioactivity was also determined in tumor-bearing Fischer 344 rats following intravenous injection of ˜35 μCi of [^18F]5a or [^18F]5b in 0.3 mL of sterile water. The procedure was similar to that already described for normal rats with the following modifications. The tail vein injections were performed in awake animals using a RTV-190 rodent restraint device (Braintree Scientific) to avoid mortality accompanying anesthesia in the presence of an intracranial mass. The animals were killed at 5 minutes, 60 minutes or 120 minutes post-injection. The same tissues were assayed as in normal rats with the addition of the tumor tissue, and the corresponding region of brain contralateral to the tumor was excised and used for comparison. The uptake in the tumor and contralateral brain at each time point was compared via a two-tailed t-test for paired observations (GraphPad Prism software package).

[2] = 5 min after injection, listed as [^18F]N-MeFAMP (5b)
[3] = 60 min after injection, listed as [^18F]N-MeFAMP (5b)
[4] = 120 min after injection, listed as [^18F]N-MeFAMP (5b)

CNC(C)(CF)C(=O)O (racemic) [[^18F]5b, 3-fluoro-2-methyl-2-(methylamino)propanoic acid]
Tissue distribution of radioactivity, Blood ([1]; 5 min after injection): 0.61 ± 0.02 percent dose per gram
Tissue distribution of radioactivity, Bone ([1]; 5 min after injection): 0.34 ± 0.04 percent dose per gram
Tissue distribution of radioactivity, Brain ([1]; 5 min after injection): 0.04 ± 0.005 percent dose per gram
Tissue distribution of radioactivity, Heart ([1]; 5 min after injection): 0.22 ± 0.01 percent dose per gram
Tissue distribution of radioactivity, Kidney ([1]; 5 min after injection): 8.12 percent dose per gram
Tissue distribution of radioactivity, Liver ([1]; 5 min after injection): 0.79 ± 0.06 percent dose per gram
Tissue distribution of radioactivity, Lung ([1]; 5 min after injection): 0.53 ± 0.03 percent dose per gram
Tissue distribution of radioactivity, Muscle ([1]; 5 min after injection): 0.16 ± 0.008 percent dose per gram
Tissue distribution of radioactivity, Pancreas ([1]; 5 min after injection): 2.73 percent dose per gram
Tissue distribution of radioactivity, Spleen ([1]; 5 min after injection): 0.44 ± 0.06 percent dose per gram
Tissue distribution of radioactivity, Testis ([1]; 5 min after injection): 0.17 ± 0.004 percent dose per gram
Tissue distribution of radioactivity, Kidney [1, 2]: 8.12 ± 0.62 percent dose per gram
Tissue distribution of radioactivity, Pancreas [1, 2]: 2.73 ± 0.28 percent dose per gram
Tissue distribution of radioactivity, Blood ([1]; 30 min after injection): 0.30 ± 0.003 percent dose per gram
Tissue distribution of radioactivity, Bone ([1]; 30 min after injection): 0.32 ± 0.04 percent dose per gram
Tissue distribution of radioactivity, Brain ([1]; 30 min after injection): 0.04 ± 0.004 percent dose per gram
Tissue distribution of radioactivity, Heart ([1]; 30 min after injection): 0.23 ± 0.03 percent dose per gram
Tissue distribution of radioactivity, Kidney ([1]; 30 min after injection): 4.60 ± 0.70 percent dose per gram
Tissue distribution of radioactivity, Liver ([1]; 30 min after injection): 0.72 ± 0.09 percent dose per gram
Tissue distribution of radioactivity, Lung ([1]; 30 min after injection): 0.50 ± 0.07 percent dose per gram
Tissue distribution of radioactivity, Muscle ([1]; 30 min after injection): 0.16 ± 0.003 percent dose per gram
Tissue distribution of radioactivity, Pancreas ([1]; 30 min after injection): 3.00 ± 0.23 percent dose per gram
Tissue distribution of radioactivity, Spleen ([1]; 30 min after injection): 0.75 ± 0.06 percent dose per gram
Tissue distribution of radioactivity, Testis ([1]; 30 min after injection): 0.11 ± 0.005 percent dose per gram
Tissue distribution of radioactivity, Blood ([1]; 60 min after injection): 0.18 ± 0.02 percent dose per gram
Tissue distribution of radioactivity, Bone ([1]; 60 min after injection): 0.29 ± 0.04 percent dose per gram
Tissue distribution of radioactivity, Brain ([1]; 60 min after injection): 0.03 ± 0.003 percent dose per gram
Tissue distribution of radioactivity, Heart ([1]; 60 min after injection): 0.20 ± 0.02 percent dose per gram
Tissue distribution of radioactivity, Kidney ([1]; 60 min after injection): 2.73 ± 0.35 percent dose per gram
Tissue distribution of radioactivity, Liver ([1]; 60 min after injection): 0.78 ± 0.10 percent dose per gram
Tissue distribution of radioactivity, Lung ([1]; 60 min after injection): 0.38 ± 0.07 percent dose per gram
Tissue distribution of radioactivity, Muscle ([1]; 60 min after injection): 0.15 ± 0.007 percent dose per gram
Tissue distribution of radioactivity, Pancreas ([1]; 60 min after injection): 3.24 ± 0.30 percent dose per gram
Tissue distribution of radioactivity, Spleen ([1]; 60 min after injection): 0.68 ± 0.02 percent dose per gram
Tissue distribution of radioactivity, Testis ([1]; 60 min after injection): 0.08 ± 0.005 percent dose per gram
Tissue distribution of radioactivity, Blood ([1]; 120 min after injection): 0.10 ± 0.007 percent dose per gram
Tissue distribution of radioactivity, Bone ([1]; 120 min after injection): 0.20 ± 0.02 percent dose per gram
Tissue distribution of radioactivity, Brain ([1]; 120 min after injection): 0.03 ± 0.001 percent dose per gram
Tissue distribution of radioactivity, Heart ([1]; 120 min after injection): 0.17 ± 0.02 percent dose per gram
Tissue distribution of radioactivity, Kidney ([1]; 120 min after injection): 1.36 ± 0.27 percent dose per gram
Tissue distribution of radioactivity, Liver ([1]; 120 min after injection): 0.58 ± 0.11 percent dose per gram
Tissue distribution of radioactivity, Lung ([1]; 120 min after injection): 0.30 ± 0.08 percent dose per gram
Tissue distribution of radioactivity, Muscle ([1]; 120 min after injection): 0.13 ± 0.007 percent dose per gram
Tissue distribution of radioactivity, Pancreas ([1]; 120 min after injection): 2.88 ± 0.40 percent dose per gram
Tissue distribution of radioactivity, Spleen ([1]; 120 min after injection): 0.47 ± 0.04 percent dose per gram
Tissue distribution of radioactivity, Testis ([1]; 120 min after injection): 0.06 ± 0.005 percent dose per gram
brain uptake of radioactivity ([1]; normal rats, all time points): approximately 0.04 % ID/g
Tissue distribution of radioactivity, Blood (9 L gliosarcoma tumor; 5 min after injection): 0.69 ± 0.04 percent dose per gram
Tissue distribution of radioactivity, Bone (9 L gliosarcoma tumor; 5 min after injection): 0.33 ± 0.04 percent dose per gram
Tissue distribution of radioactivity, Heart (9 L gliosarcoma tumor; 5 min after injection): 0.34 ± 0.02 percent dose per gram
Tissue distribution of radioactivity, Kidney (9 L gliosarcoma tumor; 5 min after injection): 9.33 ± 0.36 percent dose per gram
Tissue distribution of radioactivity, Liver (9 L gliosarcoma tumor; 5 min after injection): 0.94 ± 0.12 percent dose per gram
Tissue distribution of radioactivity, Lung (9 L gliosarcoma tumor; 5 min after injection): 0.61 ± 0.04 percent dose per gram
Tissue distribution of radioactivity, Muscle (9 L gliosarcoma tumor; 5 min after injection): 0.22 ± 0.011 percent dose per gram
Tissue distribution of radioactivity, Pancreas (9 L gliosarcoma tumor; 5 min after injection): 2.95 ± 0.58 percent dose per gram
Tissue distribution of radioactivity, Spleen (9 L gliosarcoma tumor; 5 min after injection): 0.47 ± 0.04 percent dose per gram
Tissue distribution of radioactivity, Testis (9 L gliosarcoma tumor; 5 min after injection): 0.19 ± 0.008 percent dose per gram
Tissue distribution of radioactivity, Tumor (9 L gliosarcoma tumor; 5 min after injection): 1.29 percent dose per gram
Tissue distribution of radioactivity, Tumor (9 L gliosarcoma tumor; [2]): 1.29 ± 0.28 percent dose per gram
Tissue distribution of radioactivity, Blood (9 L gliosarcoma tumor; 60 min after injection): 0.17 ± 0.02 percent dose per gram
Tissue distribution of radioactivity, Bone (9 L gliosarcoma tumor; 60 min after injection): 0.23 ± 0.04 percent dose per gram
Tissue distribution of radioactivity, Heart (9 L gliosarcoma tumor; 60 min after injection): 0.25 ± 0.03 percent dose per gram
Tissue distribution of radioactivity, Kidney (9 L gliosarcoma tumor; 60 min after injection): 2.79 ± 0.31 percent dose per gram
Tissue distribution of radioactivity, Liver (9 L gliosarcoma tumor; 60 min after injection): 0.85 ± 0.17 percent dose per gram
Tissue distribution of radioactivity, Lung (9 L gliosarcoma tumor; 60 min after injection): 0.26 ± 0.03 percent dose per gram
Tissue distribution of radioactivity, Muscle (9 L gliosarcoma tumor; 60 min after injection): 0.19 ± 0.02 percent dose per gram
Tissue distribution of radioactivity, Pancreas (9 L gliosarcoma tumor; 60 min after injection): 2.42 ± 0.27 percent dose per gram
Tissue distribution of radioactivity, Spleen (9 L gliosarcoma tumor; 60 min after injection): 0.45 ± 0.06 percent dose per gram
Tissue distribution of radioactivity, Testis (9 L gliosarcoma tumor; 60 min after injection): 0.08 ± 0.008 percent dose per gram
Tissue distribution of radioactivity, Tumor (9 L gliosarcoma tumor; 60 min after injection): 2.28 percent dose per gram
Tissue distribution of radioactivity, Tumor (9 L gliosarcoma tumor; [3]): 2.28 ± 0.16 percent dose per gram
Tissue distribution of radioactivity, Blood (9 L gliosarcoma tumor; 120 min after injection): 0.10 ± 0.007 percent dose per gram
Tissue distribution of radioactivity, Bone (9 L gliosarcoma tumor; 120 min after injection): 0.19 ± 0.02 percent dose per gram
Tissue distribution of radioactivity, Heart (9 L gliosarcoma tumor; 120 min after injection): 0.19 ± 0.02 percent dose per gram
Tissue distribution of radioactivity, Kidney (9 L gliosarcoma tumor; 120 min after injection): 1.59 ± 0.19 percent dose per gram
Tissue distribution of radioactivity, Liver (9 L gliosarcoma tumor; 120 min after injection): 0.41 ± 0.06 percent dose per gram
Tissue distribution of radioactivity, Lung (9 L gliosarcoma tumor; 120 min after injection): 0.19 ± 0.011 percent dose per gram
Tissue distribution of radioactivity, Muscle (9 L gliosarcoma tumor; 120 min after injection): 0.16 ± 0.012 percent dose per gram
Tissue distribution of radioactivity, Pancreas (9 L gliosarcoma tumor; 120 min after injection): 1.74 ± 0.24 percent dose per gram
Tissue distribution of radioactivity, Spleen (9 L gliosarcoma tumor; 120 min after injection): 0.40 ± 0.02 percent dose per gram
Tissue distribution of radioactivity, Testis (9 L gliosarcoma tumor; 120 min after injection): 0.08 ± 0.005 percent dose per gram
Tissue distribution of radioactivity, Tumor (9 L gliosarcoma tumor; 120 min after injection): 1.94 percent dose per gram
Tissue distribution of radioactivity, Tumor (9 L gliosarcoma tumor; [4]): 1.94 ± 0.12 percent dose per gram
Tissue distribution of radioactivity, Brain (9 L gliosarcoma tumor; 5 min after injection): 0.032 ± 0.002 percent dose per gram
Tissue distribution of radioactivity, Brain (9 L gliosarcoma tumor; 60 min after injection): 0.022 percent dose per gram
Tissue distribution of radioactivity, Brain (9 L gliosarcoma tumor; [3]): 0.022 ± 0.006 percent dose per gram
Tissue distribution of radioactivity, Brain (9 L gliosarcoma tumor; 120 min after injection): 0.020 percent dose per gram
Tissue distribution of radioactivity, Brain (9 L gliosarcoma tumor; [4]): 0.020 ± 0.005 percent dose per gram
